Where “and” joins values, the source holds several entries; their conditions need not be identical. Identical values can stand only once.
Experiments:
HEK293T cells = test: Quantitative peptidomics (TMAB isotopic labels, LC-MS/MS) of inhibitor-treated HEK293T cells; format: cell-based, human
Description: HEK293T and SH-SY5Y cells were grown to 80–90% confluence in DMEM and RPMI supplemented with 10% fetal bovine serum and penicillin/streptomycin. A single plate of cells (150 mm×25 mm) was used for each group. At the start of the experiment, media were removed from the plates and cells were washed with DPBS (138 mM NaCl, 8.06 mM Na2HPO4, 2.67 mM KCl, 1.47 mM KH2PO4, 0.9 mM CaCl2 and 0.49 mM MgCl2). This was followed by addition of serum-free media containing the proteasome or aminopeptidase inhibitors, or 0.05% DMSO as a control for the inhibitors that were soluble in DMSO. Each experiment consisted of two control groups and two or three replicate groups of cells treated with one of the inhibitors. The cells were incubated at 37°C for 20 minutes, following which media containing the inhibitor was removed, cells were washed with DPBS, detached from the plate by scraping into DPBS (without trypsin), and centrifuged at 800×g for 5 min. The wash buffer was supplemented with the appropriate inhibitor at the same concentration as used for the treatment, thereby ensuring that the changes induced in peptide levels were not reversed during harvesting of cells due to possible dissociation of the reversible inhibitors. The wash time (including centrifugation) was 15 minutes, for a total treatment time of 35 minutes. After centrifugation, the cell pellet was resuspended in 1 ml of 80°C water and incubated in an 80°C water bath for 20 minutes to inactivate proteases. The mixture was again centrifuged (13,000×g, 30 min, 4°C) and was stored at −80°C overnight. For peptide extraction, the samples were thawed and centrifuged again. The lysate was subsequently cooled on ice and acidified with HCl to a final concentration of 10 mM. After 15 min incubation on ice, the lysate was centrifuged at 13,000×g for 30 min at 4°C. To the supernatant, 250 µL of dibasic sodium phosphate (0.4 M, pH 9.5) was added and the mixture was stored at −80°C until labeling.
The labeling protocol has been earlier described in detail. Each group within an experiment (control/treated) was labeled with a different isotopic tag. The TMAB-NHS labels were dissolved in DMSO to a concentration of 400 µg/µL and 15 mg of label was used per 150 mm plate of cells. […] At the beginning, the pH of the peptide extract was adjusted to 9.5 with 1 M NaOH. Labeling was performed over 8 rounds; 4.69 µL of the label was added to the extract every 20 min. The pH was measured between each round and if necessary, brought back to 9.5 for the first five rounds. For rounds 6–8, the pH was not adjusted after the addition of the TMAB-NHS reagent. After the final round of label addition, the pH was adjusted to 9.5 again and the extracts were incubated at room temperature for 90 min. Thereafter, 30 µL of 2.5 M glycine was added to quench any unreacted label. Following 40 min incubation at room temperature, the labeled extracts for a single experiment were pooled and filtered through Amicon Ultracel-10 K units. It is important to ensure that only N-terminal amines and lysine side-chain amines of peptides are TMAB-labeled and not tyrosines. To hydrolyze any labeled tyrosine, 30 µL of a 2 M solution of hydroxylamine hydrochloride (pH 3.7) was added over three rounds to the pooled and filtered sample. The pH was measured after the addition of hydroxylamine and adjusted to 9.0 with 1 M NaOH. The samples were desalted through PepClean C-18 spin columns (Thermo Scientific, Rockford, IL, USA) by following manufacturer’s instructions. Peptides were eluted using 160 µL of 0.5% TFA and 70% acetonitrile, frozen at −80°C and then lyophilized in a vacuum centrifuge and stored at −80°C until analysis by mass spectrometry.
The LC-MS/MS experiments were performed on a Synapt G2 mass spectrometer coupled to a NanoAcquity capillary liquid chromatography system (Waters Co., Milford, MA, USA).

[1] = target: T1, proteasome (beta 5, chymotrypsin-like activity) in HEK293T cell extract (Homo sapiens, UniProt P20618+P28074); test: Proteasome activity in HEK293T cell extracts with beta 5-selective substrate Suc-Leu-Leu-Val-Tyr-AMC; format: biochemical
T1 construct: endogenous in cells; host or cells: HEK293T
Description: All enzyme assays described below were performed in the linear range of the assay, as determined from time-course studies. HEK293T cells were lysed by sonication in 50 mM TrisHCl buffer, pH 7.5, containing 40 mM KCl, 5 mM MgCl2, 0.5 mM ATP, and 1 mM DTT (Buffer 1).
To measure proteasome activity, a 1∶50 dilution of the cell extract was pre-incubated with the inhibitor and Buffer 1 for 30 min, followed by addition of 100 µM final concentration of the proteasome substrate succinyl-Leu-Leu-Val-Tyr-7-amino-4-methylcoumarin (Suc-Leu-Leu-Val-Tyr-AMC). After incubation at 37°C for 1 hour, proteasomal activity was quantified by fluorescence measurement of the substrate (380 nm excitation, 460 nm emission).
Figure 2 Inhibition of proteasome activity in HEK293T cells with various proteasome inhibitors. HEK293T cell extract was treated with increasing concentrations of the indicated compound for […] and incubation for 1 hour […]. Enzyme activity was determined by fluorescence measurement of AMC. The resulting activity is expressed as percent enzyme activity relative to the control reaction without inhibitor.

## CN1C/C(=C/c2ccc(B(O)O)cc2)C(=O)/C(=C\c2ccc(B(O)O)cc2)C1 [AM114, reference compound]
HEK293T cells; 1 uM, 35', HEK
  Relative Levels of peptide ADKVPKTAENFRAL (PPIA): 1.29 and 0.68 and 0.72
  Relative Levels of peptide AGAAVDELGKVLTPTQV (PEBP1): 1.53 and 0.85
  Relative Levels of peptide AKADGIVSKNF (RPS21): 0.95 and 0.82 and 0.98
  Relative Levels of peptide APIKVGDAIPAVEVF (PRDX5): 1.44 and 0.88
  Relative Levels of peptide APPTAYIDFARQK (TPI1): 1.67 and 1.17
  Relative Levels of peptide ASQPDVDGFLVGGASLKPEFVDIINAKQ (TPI1): 0.84 and 1.26 and 1.47
  Relative Levels of peptide AVDGEPLGRVSF (PPIA): 1.20 and 0.93 and 0.87
  Relative Levels of peptide Ac-AAPVDLELKKAFTEL (PFDN1): 1.09 and 0.91 and 0.97
  Relative Levels of peptide Ac-AEEGIAAGGVMDVNTALQEVLKT (RPS12): 0.90 and 1.10
  Relative Levels of peptide Ac-ANLERTFIAIKPDGV (NME2): 1.00 and 1.33
  Relative Levels of peptide Ac-ASKRALVIL (PARK7): 1.00
  Relative Levels of peptide Ac-ASKRALVILA (PARK7): 0.86 and 1.00
  Relative Levels of peptide Ac-MDTSRVQPIKL (RPS28): 0.94 and 1.00
  Relative Levels of peptide Ac-MDTSRVQPIKLAR (RPS28): 1.18 and 1.12 and 1.00
  Relative Levels of peptide Ac-MDTSRVQPIKLARVTKV (RPS28): 1.29 and 1.14
  Relative Levels of peptide Ac-SSEEGKLFVGGLNF (RBM3): 0.90 and 1.03
  Relative Levels of peptide Ac-SYGRPPPDVEGMTSLKVDNL (SRSF2): 0.91 and 1.06 and 1.09
  Relative Levels of peptide Ac-[…] (COX6B1): 1.03 and 0.97
  Relative Levels of peptide GESDDSILRLAKADGIVSKNF (RPS21): 1.09 and 0.90 and 0.85
  Relative Levels of peptide GFGDLKSPAGLQVL (EEF1B2): 1.74 and 1.18
  Relative Levels of peptide GISTPEELGLDKV (COX5A): 1.60 and 1.00
  Relative Levels of peptide KHTGPGILSM (PPIA): 1.13 and 1.00 and 0.92
  Relative Levels of peptide PGIVELPTLEEL (NDUFA8): 1.07 and 0.80 and 0.67
  Relative Levels of peptide SLGELIGTLNA (TPI1): 1.06 and 0.59 and 0.88
  Relative Levels of peptide VNPTVFFDI (PPIA): 1.20 and 0.67 and 0.80
HEK293T cells; HEK293T cells, 35 min, 2.5 µM MG132, 1 µM other inhibitors
  change in levels of intracellular peptides (peptidome): did not produce a substantial change in levels of peptides
[1]; Suc-Leu-Leu-Val-Tyr-AMC
  potency relative to clasto-Lactacystin β-lactone (fold less potent): approximately 10 fold
[1]; highest concentration tested
  inhibition of proteasome activity at the highest concentration tested: ≤ 35%
